This test addresses B-Raf (V600E)-kinase (Homo sapiens, UniProt P15056, V600E). As to the kind of experiment: Kinase test B-Raf (V600E). In kind it is biochemical. The settings on record: 100% = no inhibition, 0% = total inhibition, read-out: % CTL (residual activity of the enzyme relative to DMSO control); for remaining activity at 2 µM: compound concentration 2 μM; for remaining activity at 1.43 µM: measurement at 1.43 μM (***). The method, then:
In a dilution series 10 μL of test substance solution are placed in a multiwell plate. The dilution series is selected so that generally a range of concentrations of 2 μM to 0.119 nM or 0.017 nM is covered. If necessary the initial concentration of 2 μM is changed to 50 μM, 10 μM or 0.4 μM or 0.2857 μM and further dilution is carried out accordingly. The final concentration of DMSO is 5%. 10 μL of the B-Raf (V600E)-kinase solution are pipetted in (containing 0.5 ng B-Raf (V600E)-kinase in 20 mM Tris-HCl pH 7.5, 0.1 mM EDTA, 0.1 mM EGTA, 0.286 mM sodium orthovanadate, 10% glycerol, 1 mg/mL bovine serum albumin, 1 mM dithiothreitol) and the mixture is incubated for 1 h at RT under with shaking The kinase reaction is started by the addition of 20 μL ATP solution [final concentration: 250 μM ATP, 30 mM Tris-HCl pH 7.5, 0.02% Brij, 0.2 mM sodium orthovanadate, 10 mM magnesium acetate, 0.1 mM EGTA, phosphatase cocktail (Sigma, # P2850, dilution recommended by the manufacturer), 0.1 mM EGTA] and 10 μL MEK1 solution [containing 50 ng biotinylated MEK1 (prepared from purified MEK1 according to standard procedure, e.g. with EZ-Link Sulpho-NHS-LC-Biotin reagent, Pierce, # 21335) and carried out for 60 min at RT with constant shaking. The reaction is stopped by the addition of 12 μL of a 100 mM EDTA solution and incubation is continued for a further 5 min. 55 μL of the reaction solution are transferred into a streptavidin-coated plate (e.g. Streptawell HighBond, Roche, #11989685001) and shaken gently for 1 h at RT, in order to bind biotinylated MEK1 to the plate. After elimination of the liquid the plate is washed five times with 200 μL of 1×PBS and 100 μL solution of primary antibody plus europium-labelled secondary antibody [Anti Phospho-MEK (Ser217/221), Cell Signaling, # 9121 and Eu-N1 labeled goat-anti-rabbit antibody, Perkin Elmer, #AD0105], the primary antibody is diluted 1:2000 and the secondary antibody is diluted to 0.4-0.5 μg/mL in Delfia Assay Buffer (Perkin Elmer, #1244-111). After 1 h shaking at RT the solution is poured away and washed five times with 200 μL Delfia Wash Buffer (Perkin Elmer, #4010-0010/#1244-114). After the addition of 200 μL Enhancement Solution (Perkin Elmer, #4001-0010/#1244-105) the mixture is shaken for 10 min at RT and then measured in a Wallac Victor using the program “Delfia Time Resolved Fluorescence (Europium)”. IC50 values are obtained from these dosage-activity curves using a software program (GraphPadPrizm).
A value of 100% indicates no inhibition while a value of 0% indicates total inhibition. The % CTL values denote the residual activity of the enzyme after the addition of the inhibitory compound in the solvent DMSO in relation to the enzyme activity in the solvent DMSO without the addition of a compound (control). The values were determined using the B-Raf(V600E)-kinase test described above.

Structures are written as SMILES.

Sequence of B-Raf (V600E)-kinase (P15056 whole entry V600E): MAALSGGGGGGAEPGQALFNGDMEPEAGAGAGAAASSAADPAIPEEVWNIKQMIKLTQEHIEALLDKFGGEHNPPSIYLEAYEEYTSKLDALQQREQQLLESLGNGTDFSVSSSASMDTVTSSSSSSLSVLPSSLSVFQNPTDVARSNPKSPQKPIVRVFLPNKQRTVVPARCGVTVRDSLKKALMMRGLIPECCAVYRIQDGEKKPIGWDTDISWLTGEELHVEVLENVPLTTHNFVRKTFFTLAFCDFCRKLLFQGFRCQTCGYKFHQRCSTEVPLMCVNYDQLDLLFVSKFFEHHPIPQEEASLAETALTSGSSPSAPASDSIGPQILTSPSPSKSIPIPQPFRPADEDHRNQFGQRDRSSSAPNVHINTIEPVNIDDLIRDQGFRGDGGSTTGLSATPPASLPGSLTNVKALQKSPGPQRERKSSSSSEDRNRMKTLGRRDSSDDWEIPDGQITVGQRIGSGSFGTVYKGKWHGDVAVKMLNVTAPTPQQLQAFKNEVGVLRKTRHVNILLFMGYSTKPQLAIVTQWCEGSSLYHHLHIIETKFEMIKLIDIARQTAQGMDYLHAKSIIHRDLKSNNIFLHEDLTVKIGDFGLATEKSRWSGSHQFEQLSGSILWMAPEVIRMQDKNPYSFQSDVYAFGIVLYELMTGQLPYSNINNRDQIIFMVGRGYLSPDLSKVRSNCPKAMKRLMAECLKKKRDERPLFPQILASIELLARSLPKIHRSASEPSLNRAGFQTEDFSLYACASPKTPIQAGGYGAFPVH

`COc1c(CNCC(C)C)cc(NC(=O)c2cnc(C)c(-n3cc(-c4cnn(C)c4C)nn3)c2)cc1C(F)(F)F` [Example I-95]: the remaining activity at 2 µM was 3.1%.
Still for that read-out and setting: next, `COCCN(C)Cc1cc(NC(=O)c2cnc(C)c(-n3cc(-c4cnn(C)c4C)nn3)c2)cc(C(F)(F)F)c1OC` [Example I-96]: 3.4%.
On the same count and under the same terms, next, `CCN1CC=C(c2cc(NC(=O)c3cnc(C)c(-n4cc(-c5cnn(C)c5C)nn4)c3)cc(C(F)(F)F)c2C)CC1` [Example I-97]: 3.3%; `Cc1ncc(C(=O)Nc2cc(C3=CCN(CC4CC4)CC3)c(C)c(C(F)(F)F)c2)cc1-n1cc(-c2cnn(C)c2C)nn1` [Example I-98]: 3%.
On to `CCC(C)N1CC=C(c2cc(NC(=O)c3cnc(C)c(-n4cc(-c5cnn(C)c5C)nn4)c3)cc(C(F)(F)F)c2C)CC1` (centres unmarked) [Example I-99], for which the remaining activity at 2 µM was 1.9%.
For `Cc1ncc(C(=O)Nc2cc(C(F)(F)F)cc(Br)c2C)cc1-n1cc(-c2cnn(C)c2C)nn1` [Example I-100], the remaining activity at 2 µM stood at 3%.
Take `Cc1ncc(C(=O)Nc2cc(C(F)(F)F)cc(N3CCN(C)CC3)c2C)cc1-n1cc(-c2cnn(C)c2C)nn1` [Example I-101]: the remaining activity at 1.43 µM came out at 1.3%.
Take `COc1c(CN(C)C)cc(C(F)(F)F)cc1NC(=O)c1cnc(C)c(-n2cc(-c3cnn(C)c3C)nn2)c1` [Example I-102]: the remaining activity at 2 µM came out at 4.6%.
Still for that read-out and setting: as for `COc1c(CNC(C)C)cc(NC(=O)c2cnc(C)c(-n3cc(-c4cnn(C)c4C)nn3)c2)cc1C(F)(F)F` [Example I-103], the figure is 3.8%.
The same measure, in the same setting: as for `COc1c(CN2CCCC2)cc(C(F)(F)F)cc1NC(=O)c1cnc(C)c(-n2cc(-c3cnn(C)c3C)nn2)c1` [Example I-104], the figure is 2.1%.
On to `COc1c(CNCC(C)C)cc(C(F)(F)F)cc1NC(=O)c1cnc(C)c(-n2cc(-c3cnn(C)c3C)nn2)c1` [Example I-105], for which the remaining activity at 1.43 µM worked out at 2%.
`Cc1ncc(C(=O)Nc2cc(CN(C)C)cc(C(F)(F)F)c2)cc1-n1cc(-c2cnn(C)c2C)nn1` [Example I-106]: the remaining activity at 2 µM is 1.3%.
Still for that read-out and setting: as for `Cc1ncc(C(=O)Nc2cc(CNC(C)C)cc(C(F)(F)F)c2)cc1-n1cc(-c2cnn(C)c2C)nn1` [Example I-107], the figure is 1.6%; as for `Cc1ncc(C(=O)Nc2cc(CNCC(C)C)cc(C(F)(F)F)c2)cc1-n1cc(-c2cnn(C)c2C)nn1` [Example I-108], 1.7%.
In the case of `COCCN(C)Cc1cc(NC(=O)c2cnc(C)c(-n3cc(-c4cnn(C)c4C)nn3)c2)cc(C(F)(F)F)c1` [Example I-109], the remaining activity at 2 µM worked out at 1.8%.
For the compound `CNCc1cc(NC(=O)c2cnc(C)c(-n3cc(-c4cnn(C)c4C)nn3)c2)cc(C(F)(F)F)c1` [Example I-110], the remaining activity at 2 µM stood at 1.3%.
Same read-out and setting: next, `Cc1ncc(C(=O)Nc2cc(CNC3CC3)cc(C(F)(F)F)c2)cc1-n1cc(-c2cnn(C)c2C)nn1` [Example I-111]: 1.8%; `COCCN(C)Cc1cc(C(F)(F)F)cc(NC(=O)c2cnc(C)c(-n3cc(-c4cnn(C)c4C)nn3)c2)c1OC` [Example I-112]: 2%; `COc1c(CO)cc(NC(=O)c2cnc(C)c(-n3cc(-c4cnn(C)c4C)nn3)c2)cc1C(F)(F)F` [Example I-113]: 2.9%.
As to `Cc1ncc(C(=O)Nc2cc(C(F)(F)F)cc(N3CCCCC3)c2C)cc1-n1cc(-c2cnn(C)c2C)nn1` [Example I-114], the remaining activity at 1.02 µM (measurement at 1.02 μM (**)) is 15.6%.
Take `Cc1ncc(C(=O)Nc2cc(CO)c(Cl)c(C(F)(F)F)c2)cc1-n1cc(-c2cnn(C)c2C)nn1` [Example I-115]: the remaining activity at 2 µM was 1.9%.
Still for that read-out and setting: as for `COc1c(CN2CCCC2)cc(NC(=O)c2cnc(C)c(-n3cc(-c4cnn(C)c4C)nn3)c2)cc1C(F)(F)F` [Example I-116], the figure is 3.1%.
On the same count and under the same terms, as for `Cc1ncc(C(=O)Nc2cc(C(F)(F)F)cc(N3CCCOCC3)c2C)cc1-n1cc(-c2cnn(C)c2C)nn1` [Example I-118], the figure is 2.6%; as for `Cc1ncc(C(=O)Nc2cc(C(F)(F)F)cc(N(C)CCN(C)C)c2C)cc1-n1cc(-c2cnn(C)c2C)nn1` [Example I-119], 1.8%.
For the compound `CCN1CCN(c2cc(C(F)(F)F)cc(NC(=O)c3cnc(C)c(-n4cc(-c5cnn(C)c5C)nn4)c3)c2C)CC1` [Example I-120], the remaining activity at 2 µM was determined as 1.7%.
For `Cc1ncc(C(=O)Nc2cc(C(F)(F)F)cc(N3CCCC3)c2C)cc1-n1cc(-c2cnn(C)c2C)nn1` [Example I-121], the remaining activity at 1.43 µM was determined as 2.3%.
Turning to `Cc1ncc(C(=O)Nc2cc(C(F)(F)F)cc(N3CCOCC3)c2C)cc1-n1cc(-c2cnn(C)c2C)nn1` [Example I-122], the remaining activity at 2 µM was found to be 1.8%.
Same read-out and setting: next, `Cc1ncc(C(=O)Nc2cc(CN3CCCC3)cc(C(F)(F)F)c2)cc1-n1cc(-c2cncs2)nn1` [Example I-123]: 5.8%; `Cc1ncc(C(=O)Nc2cc(OC(F)(F)F)cc(N3CCN(C)CC3)c2)cc1-n1cc(-c2cncnc2)nn1` [Example I-124]: 1.9%.
For `Cc1ncc(C(=O)Nc2cc(C3=CCN(C)CC3)c(C)c(C(F)(F)F)c2)cc1-n1cc(-c2cnn(C)c2C)nn1` [Example I-125], the remaining activity at 2 µM stood at 1.2%.
For the compound `Cc1ncc(C(=O)Nc2cc(C3=CCNCC3)c(C)c(C(F)(F)F)c2)cc1-n1cc(-c2cnn(C)c2C)nn1` [Example I-126], the remaining activity at 2 µM was determined as 5.7%.
The same measure, in the same setting: as for `Cc1ncc(C(=O)Nc2cc(CN3CCCC3)c(Cl)c(C(F)(F)F)c2)cc1-n1cc(-c2cncs2)nn1` [Example I-127], the figure is 6.1%; as for `Cc1ncc(C(=O)Nc2cc(N3CCN(C)CC3)c(F)c(C(F)(F)F)c2)cc1-n1cc(-c2cncs2)nn1` [Example I-128], 5.3%.
Still for that read-out and setting: next, `Cc1ncc(C(=O)Nc2cc(CN3CCCC3)c(C)c(C(F)(F)F)c2)cc1-n1cc(-c2cnn(C)c2C)nn1` [Example I-130]: 2.2%; `Cc1ncc(C(=O)Nc2cc(CNCC(C)C)c(C)c(C(F)(F)F)c2)cc1-n1cc(-c2cnn(C)c2C)nn1` [Example I-131]: 2.2%.
Still for that read-out and setting: next, `Cc1ncc(C(=O)Nc2cc(CNC(C)C)c(C)c(C(F)(F)F)c2)cc1-n1cc(-c2cnn(C)c2C)nn1` [Example I-132]: 1%.
With `CCN1CCN(c2cncc(-c3cn(-c4cc(C(=O)Nc5cc(C(C)(C)C)on5)cnc4C)nn3)c2)CC1` [Example I-134], the remaining activity at 2 µM came to 2.6%.
Turning to `COCCN1CCN(c2cncc(-c3cn(-c4cc(C(=O)Nc5cc(C(C)(C)C)on5)cnc4C)nn3)c2)CC1` [Example I-135], the remaining activity at 2 µM was determined as 2.6%.
As to `Cc1ncc(C(=O)Nc2cc(C(C)(C)C)on2)cc1-n1cc(-c2cncc(N3CCC(N4CCOCC4)CC3)c2)nn1` [Example I-136], the remaining activity at 2 µM is 2.5%.
Same read-out and setting: next, `Cc1ncc(C(=O)Nc2cc(C(C)(C)C)on2)cc1-n1cc(-c2cncc(N3CCN(CC4CC4)CC3)c2)nn1` [Example I-137]: 2.5%; `Cc1ncc(C(=O)Nc2cc(C(C)(C)C)on2)cc1-n1cc(-c2cncc(NCCN(C)C)c2)nn1` [Example I-138]: 2.5%.
Still for that read-out and setting: next, `Cc1ncc(C(=O)Nc2cc(C(C)(C)C)on2)cc1-n1cc(-c2cncc(N3CCC(N4CCCCC4)CC3)c2)nn1` [Example I-139]: 2.5%; `Cc1ncc(C(=O)Nc2cc(C(C)(C)C)on2)cc1-n1cc(-c2cncc(N3CCN(C(C)C)CC3)c2)nn1` [Example I-140]: 2.2%; `Cc1ncc(C(=O)Nc2cc(C(C)(C)C)on2)cc1-n1cc(-c2cncc(N(C)CCN(C)C)c2)nn1` [Example I-141]: 2.1%.

The record behind these values is US8778929B2, “Substituted heteroaryl inhibitors of B-RAF” (Boehringer Ingelheim International GmbH, priority 2008, dated 2014).
